Test results taken from patent US20220289708A1, “SUBSTITUTED N-PHENYL URACILS, SALTS THEREOF AND THEIR USE AS HERBICIDAL AGENTS” (Bayer Aktiengesellschaft, priority 2019, published 2022).

Tests used:
Type in all cases: in vivo
Abutilon theophrasti [1] = test: Post-emergence herbicidal action; conditions: application rate 5 g/ha, rated visually after about 3 weeks vs untreated controls
Outline: (§1)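 Percent activity, judged by eye about 3 weeks after treatment relative to untreated plants, ranges from 0% (as control) to 100% (plants dead). Foliar application at 20 g/ha and less was made at the one-leaf stage using a 600 l/ha aqueous spray containing 0.5% additive.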

Amaranthus retroflexus [2] = test: Post-emergence herbicidal action; conditions: rated visually after about 3 weeks vs untreated controls
Outline: as §1

Avena fatua [3] = test: Post-emergence herbicidal action; conditions: application rate 20 g/ha, rated visually after about 3 weeks vs untreated controls
Outline: as §1

Digitaria sanguinalis [4] = test: Post-emergence herbicidal action; conditions: rated visually after about 3 weeks vs untreated controls
Outline: as §1

Echinochloa crus-galli [5] = test: Post-emergence herbicidal action; conditions: rated visually after about 3 weeks vs untreated controls
Outline: as §1

Matricaria inodora [6] = test: Post-emergence herbicidal action; conditions: rated visually after about 3 weeks vs untreated controls
Outline: as §1

Pharbitis purpurea [7] = test: Post-emergence herbicidal action; conditions: rated visually after about 3 weeks vs untreated controls
Outline: as §1

Veronica persica [8] = test: Post-emergence herbicidal action
Outline: as §1

Abutilon theophrasti [9] = test: Pre-emergence herbicidal action; conditions: application rate 20 g/ha
Text: (§2) B. Pre-Emergence Herbicidal Action and Crop Plant Compatibility Seeds of monocotyledonous and dicotyledonous weed plants and crop plants were placed in plastic or organic planting pots and covered with soil. The compounds of the invention, formulated in the form of wettable powders (WP) or as emulsion concentrates (EC), were then applied to the surface of the covering soil as aqueous suspension or emulsion with addition of 0.5% additive at a water application rate equivalent to 600 l/ha (converted). After the treatment, the pots were placed in a greenhouse and kept under good growth conditions for the test plants. After about 3 weeks, the effect of the preparations was scored visually in comparison with untreated controls as percentages. For example, 100% activity=the plants have died, 0% activity=like control plants. Tables B1 to B13 below show the effects of selected compounds of the general formula (I) according to Tables I.1 to I.36 on various harmful plants and at an application rate corresponding to 80 g/ha or less, which were obtained by the experimental procedure mentioned above.

Alopecurus myosuroides [10] = test: Pre-emergence herbicidal action
Text: as §2

Amaranthus retroflexus [11] = test: Pre-emergence herbicidal action; conditions: application rate 20 g/ha
Text: as §2

Avena fatua [12] = test: Pre-emergence herbicidal action; conditions: application rate 80 g/ha
Text: as §2

Digitaria sanguinalis [13] = test: Pre-emergence herbicidal action; conditions: application rate 20 g/ha
Text: as §2

Echinochloa crus-galli [14] = test: Pre-emergence herbicidal action
Text: as §2

Lolium rigidum = test: Pre-emergence herbicidal action; conditions: application rate 80 g/ha
Text: as §2

Matricaria inodora [15] = test: Pre-emergence herbicidal action; conditions: application rate 20 g/ha
Text: as §2

Pharbitis purpurea [16] = test: Pre-emergence herbicidal action; conditions: application rate 20 g/ha
Text: as §2

Polygonum convolvulus [17] = test: Pre-emergence herbicidal action; conditions: application rate 20 g/ha
Text: as §2

Setaria viridis [18] = test: Pre-emergence herbicidal action; conditions: application rate 20 g/ha
Text: as §2

Veronica persica [19] = test: Pre-emergence herbicidal action; conditions: application rate 20 g/ha
Text: as §2

Viola tricolor [20] = test: Pre-emergence herbicidal action; conditions: application rate 20 g/ha
Text: as §2

Triticum aestivum [21] = test: Pre-emergence crop plant compatibility; conditions: application rate 20 g/ha
Text: (§3) B. Pre-Emergence Herbicidal Action and Crop Plant Compatibility
as §2, with “Seeds” for “B. Pre-Emergence Herbicidal Action and Crop Plant Compatibility Seeds”, “plants.” for “plants. Tables B1 to B13 below show the effects of selected compounds of the general formula (I) according to Tables I.1 to I.36 on various harmful plants and at an application rate corresponding to 80 g/ha or less, which were obtained by the experimental procedure mentioned above.”
(§4) Tables B14 to B16 below show the crop plant compatibilities of selected compounds of the general formula (I) according to Tables I.1 to I.36 at an application rate corresponding to 20 g/ha, which were obtained in experiments according to the experimental procedure mentioned above. Here, the observed effects on selected crop plants are stated in comparison to the untreated controls (values in %).

Oryza sativa = test: Post-emergence crop plant compatibility
Outline: (§5)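 Greenhouse crop plants in sandy loam sprayed at one-leaf stage (2-3 weeks after sowing) with WP or EC formulations plus 0.5% additive, 600 l/ha water, at 5 g/ha or 20 g/ha. Damage scored visually after about 3 weeks as % versus untreated controls (100% = plants dead).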

Zea mays [22] = test: Post-emergence crop plant compatibility; conditions: application rate 5 g/ha
Outline: as §5

Zea mays [23] = test: Pre-emergence crop plant compatibility; conditions: application rate 20 g/ha
Text: as §3
as §2, with “Seeds” for “B. Pre-Emergence Herbicidal Action and Crop Plant Compatibility Seeds”, “plants.” for “plants. Tables B1 to B13 below show the effects of selected compounds of the general formula (I) according to Tables I.1 to I.36 on various harmful plants and at an application rate corresponding to 80 g/ha or less, which were obtained by the experimental procedure mentioned above.”
as §4

Alopecurus myosuroides [24] = test: Post-emergence herbicidal action; conditions: application rate 20 g/ha, rated visually after about 3 weeks vs untreated controls
Outline: as §1

Polygonum convolvulus [25] = test: Post-emergence herbicidal action; conditions: application rate 20 g/ha
Outline: as §1

Setaria viridis [26] = test: Post-emergence herbicidal action; conditions: application rate 20 g/ha, rated visually after about 3 weeks vs untreated controls
Outline: as §1

Viola tricolor [27] = test: Post-emergence herbicidal action; conditions: application rate 20 g/ha
Outline: as §1

Triticum aestivum [28] = test: Post-emergence crop plant compatibility; conditions: application rate 5 g/ha
Outline: as §5

Row | Structure (SMILES) | Abutilon theophrasti (efficacy in %) (Abutilon theophrasti [1]) | Amaranthus retroflexus (efficacy in %) (Amaranthus retroflexus [2]; application rate 5 g/ha) | Avena fatua (efficacy in %) (Avena fatua [3]) | Digitaria sanguinalis (efficacy in %) (Digitaria sanguinalis [4]; application rate 5 g/ha) | Echinochloa crus-galli (efficacy in %) (Echinochloa crus-galli [5]; application rate 5 g/ha) | Pharbitis purpurea (efficacy in %) (Pharbitis purpurea [7]; application rate 5 g/ha) | Veronica persica (efficacy in %) (Veronica persica [8]; application rate 5 g/ha) | Abutilon theophrasti (efficacy in %) (Abutilon theophrasti [9]) | Alopecurus myosuroides (efficacy in %) (Alopecurus myosuroides [10]; application rate 20 g/ha) | Amaranthus retroflexus (efficacy in %) (Amaranthus retroflexus [11]) | Avena fatua (efficacy in %) (Avena fatua [12]) | Digitaria sanguinalis (efficacy in %) (Digitaria sanguinalis [13]) | Echinochloa crus-galli (efficacy in %) (Echinochloa crus-galli [14]; application rate 20 g/ha) | Lolium rigidum (efficacy in %) (Lolium rigidum) | Matricaria inodora (efficacy in %) (Matricaria inodora [15]) | Pharbitis purpurea (efficacy in %) (Pharbitis purpurea [16]) | Polygonum convolvulus (efficacy in %) (Polygonum convolvulus [17]) | Setaria viridis (efficacy in %) (Setaria viridis [18]) | Veronica persica (efficacy in %) (Veronica persica [19]) | Viola tricolor (efficacy in %) (Viola tricolor [20]) | further results
1 | Cn1c(C(F)(F)F)cc(=O)n(-c2cc(Oc3cccnc3OCC(=O)OCC3OCCO3)c(Cl)cc2F)c1=O [I.15-424] | 100% | 100% | 100% | 100% | 100% | 100% | 100% | 100% | 80% | 100% | 100% | 100% | 90% | 100% | 100% | 100% | 100% | 100% | 100% | 100% | Matricaria inodora (efficacy in %) (Matricaria inodora [6]; application rate 5 g/ha): 100%; Triticum aestivum (efficacy in %) (Triticum aestivum [21]): 10%
2 | Cn1c(C(F)(F)F)cc(=O)n(-c2cc(Oc3cccnc3OCC(=O)OC[Si](C)(C)C)c(Cl)cc2F)c1=O [I.15-201] | 100% | 100% |  | 100% | 100% | 100% | 100% | 100% |  | 100% | 100% | 100% |  | 100% | 100% | 100% | 100% | 100% | 100% | 100% | Oryza sativa (efficacy in %) (Oryza sativa; application rate 5 g/ha): 0%; Zea mays (efficacy in %) (Zea mays [22]): 20%; Alopecurus myosuroides (efficacy in %) (Alopecurus myosuroides [10]; application rate 80 g/ha): 100%; Echinochloa crus-galli (efficacy in %) (Echinochloa crus-galli [14]; application rate 80 g/ha): 100%; Zea mays (efficacy in %) (Zea mays [23]): 0%
3 | Cn1c(C(F)(F)F)cc(=O)n(-c2cc(Oc3cccnc3OCC(=O)OC3COC3)c([N+](=O)[O-])cc2F)c1=O [I.14-115] |  |  | 80% |  |  |  |  |  |  |  |  |  |  |  |  |  |  |  |  |  | Alopecurus myosuroides (efficacy in %) (Alopecurus myosuroides [24]): 100%; Amaranthus retroflexus (efficacy in %) (Amaranthus retroflexus [2]; application rate 20 g/ha): 100%; Digitaria sanguinalis (efficacy in %) (Digitaria sanguinalis [4]; application rate 20 g/ha): 100%; Echinochloa crus-galli (efficacy in %) (Echinochloa crus-galli [5]; application rate 20 g/ha): 100%; Matricaria inodora (efficacy in %) (Matricaria inodora [6]; application rate 20 g/ha): 100%; Pharbitis purpurea (efficacy in %) (Pharbitis purpurea [7]; application rate 20 g/ha): 100%; Polygonum convolvulus (efficacy in %) (Polygonum convolvulus [25]): 100%; Setaria viridis (efficacy in %) (Setaria viridis [26]): 100%; Veronica persica (efficacy in %) (Veronica persica [8]; application rate 20 g/ha): 100%; Viola tricolor (efficacy in %) (Viola tricolor [27]): 100%; Oryza sativa (efficacy in %) (Oryza sativa; application rate 20 g/ha): 20%; Zea mays (efficacy in %) (Zea mays [22]): 20%
4 | Cn1c(C(F)(F)F)cc(=O)n(-c2cc(Oc3cccnc3OCC(=O)OCCS(C)(=O)=O)c(Cl)cc2F)c1=O [I.15-166] | 100% | 100% |  |  |  |  | 100% | 100% | 90% | 100% | 100% | 100% | 80% | 100% | 100% | 100% | 100% | 100% | 100% | 100% | Triticum aestivum (efficacy in %) (Triticum aestivum [28]): 0%; Triticum aestivum (efficacy in %) (Triticum aestivum [21]): 20%
